Experimental findings from publication PMC6749370, “Antibacterial Evaluation, In Silico Characters and Molecular Docking of Schiff Bases Derived from 5-aminopyrazoles” (Molecules, 2019) are described below.

For test [1], the system named is Enterobacter cloaca (Ecl). Put plainly: Minimal inhibitory concentration against multi-drug resistant bacteria. Particulars: NA: No Activity. It counts as cell-based. The procedure:
(§1) In vitro antibacterial activities against multi-drug resistant bacteria (MDRB) of Schiff bases 14–25 were performed at botany and microbiology department, Faculty of Science, Al-Azhar University, Cairo, Egypt. The antibacterial potential of 14–25 were investigated towards the multi-drug resistant bacteria (MDRB).
(§2) The synthesized compounds, Schiff bases 14–25, were in vitro evaluation of their antibacterial properties against multi-drug resistant bacteria (MDRB). Examples of Gram-positive bacteria are Staphylococcus aureus (MRSA, Sa), Staphylococcus epidermis (Sp), and Enterococcus faecalis (Ef). Examples of Gram-negative bacteria are Acinetobacter baumannii (Ab), Enterobacter cloaca (Ecl), and Escherichia coli (Ec). All the tested strain was identified by Vitek®2 system.

Test [2] relates to Staphylococcus epidermis (Se). The description is as above. Type of test: cell-based. The settings on record: NA: No Activity. The protocol:
as §1, §2

The subject of test [3] is Staphylococcus aureus (MRSA, Sa). Described as above. Type of test: cell-based. The settings on record: NA: No Activity. The protocol: (§3) In vitro antibacterial activities against multi-drug resistant bacteria (MDRB) of Schiff bases 14–25 were performed at botany and microbiology department, Faculty of Science, Al-Azhar University, Cairo, Egypt. The antibacterial potential of 14–25 were investigated towards the multi-drug resistant bacteria (MDRB). The results were summarized as the diameter of the inhibition zones in mm and minimal inhibitory concentration (MIC, µg/mL) values in Table 2.
(§4) The synthesized compounds, Schiff bases 14–25, were in vitro evaluation of their antibacterial properties against multi-drug resistant bacteria (MDRB). Examples of Gram-positive bacteria are Staphylococcus aureus (MRSA, Sa), Staphylococcus epidermis (Sp), and Enterococcus faecalis (Ef). Examples of Gram-negative bacteria are Acinetobacter baumannii (Ab), Enterobacter cloaca (Ecl), and Escherichia coli (Ec). All the tested strain was identified by Vitek®2 system. The multi-drug resistant to antibiotics such as Ampicillin, Cephalexin, Colisin, Ipemenem, and Meropenem was verified.

Test [4] has as its system Enterococcus faecalis (Ef). Described as above. It counts as cell-based. Particulars: NA: No Activity. The protocol:
as §3, §4

Test [5] deals with Acinetobacter baumannii (Ab). The test is described as above. It counts as cell-based. The settings on record: NA: No Activity. The procedure: as §1, §2
In test [6] the test system is Escherichia coli (Ec). The test is described as above. It counts as cell-based. The settings on record: NA: No Activity. The protocol:
as §3, §4

For test [7], the target named is Staphylococcus aureus DNA gyrase (Staphylococcus aureus, UniProt P0A0K8+P20831). The test can be described thus: In vitro enzyme inhibition assay. It counts as biochemical. The settings on record: mean of three values, read-out: IC50 (Mean ± SEM) DNA Gyrase.
For test [8], the target named is Topoisomerase IV (Staphylococcus aureus, UniProt P0C1S7+P0C1U9). The test can be described thus: In vitro enzyme inhibition assay. Type of test: biochemical.

Values after ≈ are worked out from the molar mass of the structure shown. Marks after values point to notes of the source that are not given here.

Sequence of Staphylococcus aureus DNA gyrase (P20831 whole entry): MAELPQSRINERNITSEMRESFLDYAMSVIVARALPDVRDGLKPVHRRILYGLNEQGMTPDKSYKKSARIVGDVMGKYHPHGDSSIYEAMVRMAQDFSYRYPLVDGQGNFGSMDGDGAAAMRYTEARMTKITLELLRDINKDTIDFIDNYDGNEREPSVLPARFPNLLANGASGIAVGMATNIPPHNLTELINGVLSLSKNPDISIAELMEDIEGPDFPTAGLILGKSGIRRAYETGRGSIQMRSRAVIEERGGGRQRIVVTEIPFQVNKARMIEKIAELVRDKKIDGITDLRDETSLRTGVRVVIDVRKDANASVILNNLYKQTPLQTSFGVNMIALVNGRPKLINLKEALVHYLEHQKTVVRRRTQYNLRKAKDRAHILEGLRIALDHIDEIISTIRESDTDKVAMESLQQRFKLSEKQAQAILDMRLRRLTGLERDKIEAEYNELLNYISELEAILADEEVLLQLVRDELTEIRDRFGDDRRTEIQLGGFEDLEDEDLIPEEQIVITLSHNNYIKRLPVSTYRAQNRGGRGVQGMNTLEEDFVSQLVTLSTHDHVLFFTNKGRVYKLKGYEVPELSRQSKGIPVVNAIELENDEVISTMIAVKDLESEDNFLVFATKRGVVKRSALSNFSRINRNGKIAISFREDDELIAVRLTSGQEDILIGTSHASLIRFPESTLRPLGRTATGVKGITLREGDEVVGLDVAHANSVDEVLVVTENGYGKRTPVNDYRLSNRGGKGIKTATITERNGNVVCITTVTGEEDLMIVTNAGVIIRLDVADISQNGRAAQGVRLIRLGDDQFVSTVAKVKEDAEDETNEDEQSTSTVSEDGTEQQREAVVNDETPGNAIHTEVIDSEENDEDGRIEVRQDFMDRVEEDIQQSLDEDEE
Sequence of Staphylococcus aureus DNA gyrase (P0A0K8 whole entry): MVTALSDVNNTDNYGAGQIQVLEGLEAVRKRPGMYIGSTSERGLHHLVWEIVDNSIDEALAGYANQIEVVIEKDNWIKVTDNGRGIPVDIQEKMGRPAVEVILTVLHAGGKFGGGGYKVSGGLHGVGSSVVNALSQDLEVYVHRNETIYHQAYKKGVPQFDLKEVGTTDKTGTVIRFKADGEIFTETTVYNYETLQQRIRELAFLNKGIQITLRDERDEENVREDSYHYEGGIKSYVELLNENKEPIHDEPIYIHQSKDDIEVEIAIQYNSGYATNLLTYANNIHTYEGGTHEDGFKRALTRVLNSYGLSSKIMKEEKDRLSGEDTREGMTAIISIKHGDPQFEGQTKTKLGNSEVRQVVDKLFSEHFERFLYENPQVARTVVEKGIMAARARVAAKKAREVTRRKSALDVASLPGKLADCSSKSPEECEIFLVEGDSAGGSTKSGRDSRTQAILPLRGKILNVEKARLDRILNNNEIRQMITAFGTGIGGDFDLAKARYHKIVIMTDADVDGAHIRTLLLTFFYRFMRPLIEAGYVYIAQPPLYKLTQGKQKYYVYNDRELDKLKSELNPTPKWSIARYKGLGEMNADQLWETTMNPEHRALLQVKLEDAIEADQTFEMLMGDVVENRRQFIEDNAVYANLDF
Sequence of Topoisomerase IV (P0C1S7 whole entry): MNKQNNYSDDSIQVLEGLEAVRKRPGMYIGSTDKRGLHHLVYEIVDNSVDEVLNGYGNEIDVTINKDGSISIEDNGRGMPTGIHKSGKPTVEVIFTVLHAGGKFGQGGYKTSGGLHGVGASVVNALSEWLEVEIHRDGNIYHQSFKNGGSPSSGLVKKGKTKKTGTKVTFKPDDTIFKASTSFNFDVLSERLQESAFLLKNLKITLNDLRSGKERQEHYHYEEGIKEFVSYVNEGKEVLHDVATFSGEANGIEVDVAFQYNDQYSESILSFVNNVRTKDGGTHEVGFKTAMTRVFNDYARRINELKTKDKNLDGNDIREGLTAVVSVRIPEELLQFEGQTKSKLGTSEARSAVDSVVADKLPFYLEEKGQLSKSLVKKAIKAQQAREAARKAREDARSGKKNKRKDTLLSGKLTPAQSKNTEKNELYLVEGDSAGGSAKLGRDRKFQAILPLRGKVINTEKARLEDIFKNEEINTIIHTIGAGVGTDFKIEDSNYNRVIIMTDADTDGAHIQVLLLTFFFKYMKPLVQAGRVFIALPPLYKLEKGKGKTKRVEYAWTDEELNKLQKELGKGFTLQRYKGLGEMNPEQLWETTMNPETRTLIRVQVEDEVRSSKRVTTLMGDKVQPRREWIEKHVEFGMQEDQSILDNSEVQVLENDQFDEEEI
Sequence of Topoisomerase IV (P0C1U9 whole entry): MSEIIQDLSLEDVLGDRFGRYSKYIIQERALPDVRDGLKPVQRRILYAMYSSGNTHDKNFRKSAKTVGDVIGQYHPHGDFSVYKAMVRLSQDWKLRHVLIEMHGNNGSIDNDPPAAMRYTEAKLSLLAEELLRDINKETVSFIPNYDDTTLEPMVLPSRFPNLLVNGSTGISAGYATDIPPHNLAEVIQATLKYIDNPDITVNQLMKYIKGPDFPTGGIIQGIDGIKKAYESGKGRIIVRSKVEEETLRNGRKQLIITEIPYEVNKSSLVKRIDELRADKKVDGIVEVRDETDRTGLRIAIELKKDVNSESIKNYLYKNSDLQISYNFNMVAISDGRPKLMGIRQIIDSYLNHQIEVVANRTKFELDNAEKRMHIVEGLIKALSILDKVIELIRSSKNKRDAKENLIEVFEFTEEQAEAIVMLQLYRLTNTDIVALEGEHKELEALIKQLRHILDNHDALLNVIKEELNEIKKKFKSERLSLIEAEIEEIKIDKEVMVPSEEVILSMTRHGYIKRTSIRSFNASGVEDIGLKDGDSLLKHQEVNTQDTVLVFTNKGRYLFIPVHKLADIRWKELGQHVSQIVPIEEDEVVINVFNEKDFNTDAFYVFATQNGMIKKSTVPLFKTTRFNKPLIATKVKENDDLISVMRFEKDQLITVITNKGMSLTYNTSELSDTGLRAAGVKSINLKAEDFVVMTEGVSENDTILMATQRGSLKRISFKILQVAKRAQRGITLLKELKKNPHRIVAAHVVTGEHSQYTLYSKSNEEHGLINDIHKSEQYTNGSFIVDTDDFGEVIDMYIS

`COc1ccc(Nc2n[nH]c(/N=C/c3ccc(C)cc3)c2C(=O)Nc2ccc(Cl)cc2)cc1` [Compound 23]: the MIC amounted to 62.5 µg/mL (≈ 136 µM) in test [1], 15.6 µg/mL (≈ 34 µM) in test [2], 31.2 µg/mL (≈ 67.9 µM) in test [3] and 7.81 µg/mL (≈ 17 µM) in test [4]. The “Minimal inhibitory concentration (MIC), Ef” value in test [4] is 7.81 * µg/mL.
As for `COc1ccc(Nc2n[nH]c(/N=C/c3ccccc3)c2C(=O)Nc2ccc(Cl)cc2)cc1` [Compound 22], the minimal inhibitory concentration (MIC) in test [1] was determined as 15.6 µg/mL (≈ 35 µM); in test [2] it was 125 µg/mL (≈ 280 µM); in test [3], 250 µg/mL (≈ 561 µM); in test [4], 125 µg/mL (≈ 280 µM). In test [1], the “Minimal inhibitory concentration (MIC), Ecl” value is recorded as 15.62 * µg/mL.
Turning to `COc1ccc(Nc2n[nH]c(/N=C/c3ccc(F)cc3)c2C(=O)Nc2ccccc2)cc1` [Compound 17], the MIC in test [5] was 62.5 µg/mL (≈ 146 µM); in test [1] it was 125 µg/mL (≈ 291 µM); in test [2], 31.2 µg/mL (≈ 72.8 µM); in test [3], 62.5 µg/mL (≈ 146 µM); in test [6], 31.2 µg/mL (≈ 72.8 µM). In addition, the “Minimal inhibitory concentration (MIC), Ec” value in test [6] is 31.25 * µg/mL.
As for `O=C(O)c1cn(C2CC2)c2cc(N3CCNCC3)c(F)cc2c1=O` [Ciprofloxacin, reference compound], the minimal inhibitory concentration (MIC) in test [3], in test [6] and in test [4] was 7.81 µg/mL (≈ 23.6 µM) each time.
`COc1ccc(Nc2n[nH]c(/N=C/c3ccc(Cl)cc3)c2C(=O)Nc2ccc(C)cc2)cc1` [Compound 20]: the MIC in test [2] worked out at 125 µg/mL (≈ 272 µM); in test [3], 62.5 µg/mL (≈ 136 µM); in test [4] it was 250 µg/mL (≈ 544 µM).
For `COc1ccc(Nc2n[nH]c(/N=C/c3ccc(C)cc3)c2C(=O)Nc2ccccc2)cc1` [Compound 15], the MIC amounted to 62.5 µg/mL (≈ 147 µM) in test [5]; 62.5 µg/mL (≈ 147 µM) in test [1]; 15.6 µg/mL (≈ 36.7 µM) in test [2]; 62.5 µg/mL (≈ 147 µM) in test [3]; 125 µg/mL (≈ 294 µM) in test [6]; 31.2 µg/mL (≈ 73.4 µM) in test [4]. In addition, the “Minimal inhibitory concentration (MIC), Sa” value in test [3] turned out to be 62.50 µg/mL (≈ 147 µM).
Consider `COc1ccc(Nc2n[nH]c(/N=C/c3ccc(F)cc3)c2C(=O)Nc2ccc(C)cc2)cc1` [Compound 21], for which the MIC in test [2] was 62.5 µg/mL (≈ 141 µM); in test [3], 125 µg/mL (≈ 282 µM).
Regarding `COc1ccc(Nc2n[nH]c(/N=C/c3ccc(Cl)cc3)c2C(=O)Nc2ccc(Cl)cc2)cc1` [Compound 24], the MIC in test [1] was found to be 62.5 µg/mL (≈ 130 µM); in test [2], 62.5 µg/mL (≈ 130 µM); in test [3], 125 µg/mL (≈ 260 µM); in test [6] it was 125 µg/mL (≈ 260 µM); in test [4], 15.6 µg/mL (≈ 32.5 µM).
With `COc1ccc(Nc2n[nH]c(/N=C/c3ccccc3)c2C(=O)Nc2ccc(C)cc2)cc1` [Compound 18], the IC50 in test [7] is 1.68 ± 0.1 µM; in test [8], 74.6 ± 1.2 µM. Besides, the MIC in test [5] was 15.6 µg/mL (≈ 36.7 µM); in test [1], 62.5 µg/mL (≈ 147 µM); in test [2] it was 7.81 µg/mL (≈ 18.4 µM); in test [3] it was 15.6 µg/mL (≈ 36.7 µM); in test [6], 250 µg/mL (≈ 588 µM); in test [4], 31.2 µg/mL (≈ 73.4 µM). Further, in test [5], the “Minimal inhibitory concentration (MIC), Ab” value is on record as 15.62 * µg/mL. Further, the “Minimal inhibitory concentration (MIC), Sa” value in test [3] is recorded as 15.62 * µg/mL.
Take `COc1ccc(Nc2n[nH]c(/N=C/c3ccc(Cl)cc3)c2C(=O)Nc2ccccc2)cc1` [Compound 16]: the MIC in test [5] is 15.6 µg/mL (≈ 35 µM); in test [1] it was 62.5 µg/mL (≈ 140 µM); in test [2], 7.81 µg/mL (≈ 17.5 µM); in test [3] it was 31.2 µg/mL (≈ 70.1 µM); in test [6] it was 125 µg/mL (≈ 280 µM); in test [4] it was 62.5 µg/mL (≈ 140 µM). Further, the “Minimal inhibitory concentration (MIC), Ab” value in test [5] is 15.62 * µg/mL.
As to `COc1ccc(Nc2n[nH]c(/N=C/c3ccc(C)cc3)c2C(=O)Nc2ccc(C)cc2)cc1` [Compound 19], the MIC amounted to 62.5 µg/mL (≈ 142 µM) in test [5]; 125 µg/mL (≈ 284 µM) in test [1]; 15.6 µg/mL (≈ 35.5 µM) in test [2]; 31.2 µg/mL (≈ 71.1 µM) in test [3]; 62.5 µg/mL (≈ 142 µM) in test [6]; 15.6 µg/mL (≈ 35.5 µM) in test [4].
On to `COc1ccc(Nc2n[nH]c(/N=C/c3ccccc3)c2C(=O)Nc2ccccc2)cc1` [Compound 14], for which the MIC in test [1] came to 125 µg/mL (≈ 304 µM); in test [2], 7.81 µg/mL (≈ 19 µM); in test [3], 31.2 µg/mL (≈ 75.9 µM); in test [4] it was 15.6 µg/mL (≈ 38 µM).

By MIC is commonly meant the least concentration at which growth counts as inhibited. A higher MIC goes with a need for much substance. One may read the IC50 as the concentration that gives 50% inhibition.
